Patent US20150246898A1, “METALLOENZYME INHIBITOR COMPOUNDS” (DOW AGROSCIENCES LLC, priority 2012, published 2015)
Converted amounts (≈) assume the structure as drawn.

Key:
[1] = tested on: Septoria tritici (ATCC 26517); experiment: Minimum Inhibitory Concentration (MIC) vs. Septoria tritici, CLSI-based microdilution; format: cell-based; conditions: Zymoseptoria tritici, ATCC26517, 168 h; MIC = 50% reduction in growth of S. tritici, 7 days at 22 °C, RPMI/MOPS, 1% DMSO; read-out: Septoria Rating (MIC)
Experimental: Compounds of the present disclosure were assessed for their ability to inhibit the growth of a common strain of the fungal plant pathogen Septoria tritici (ATCC 26517) using a procedure based on a Clinical and Laboratory Standards Institute (CLSI) microdilution assay protocol for filamentous fungi. Stock solutions of the test compounds and standards were prepared in DMSO at 6400 μg/mL. Each stock solution was used to prepare a 2-fold dilution series ranging from 16 to 0.016 μg/mL (total of 11 compound concentrations) in RPMI-1640 (Roswell Park Memorial Institute) medium containing 3-(N-morpholino)propanesulfonic acid (MOPS) buffer and 2% DMSO. A 100 μL aliquot of the dilutions was added to columns 1 (16 μg/mL compound) through 11 (0.016 μg/mL compound) of a 96-well microtiter plate. This format was replicated in a second row of the microtiter plate. Thus, each microtiter plate could include 11 concentrations of four test or control compounds replicated twice. A 100 μL aliquot of RPMI-1640/MOPS/2% DMSO medium was added to column 12 (no compound control) of the microtiter plate. A fresh culture of S. tritici was used to prepare a solution of approximately 5×10^4 colony-forming units per milliliter (cfu/mL) in RPMI/MOPS medium without DMSO. A 100 μL aliquot of this solution was added to all 96 wells in the microtiter plate. […] In each case of Table 3 the Septoria rating scale is as follows: […]

[2] = tested on: Puccinia recondita tritici = Puccinia triticina (PUCCRT); experiment: Fungicidal activity vs. leaf rust on wheat plants (1-day protectant spray); format: in vivo; conditions: wheat (variety Yuma) sprayed at 50 ppm, inoculated next day, disease severity evaluated 7-9 days later, read-out: Puccinia Rating (% Disease Control @ 50 ppm)
Excerpt: Each pot contained 3-8 seedlings. These plants were sprayed until wet with the formulated test compounds. The compounds were formulated at 50 ppm in 10 vol. % acetone plus 90 vol. % Triton X water (deionized water 99.99 wt %+0.01 wt % Triton X100), giving a “formulated test compound.” Formulated test compounds were applied to plants using a turn table sprayer fitted with two opposing air atomization nozzles which delivered approximately 1500 L/ha of spray volume. On the following day, the leaves were inoculated with an aqueous spore suspension of Puccinia recondita tritici and the plants were kept in high humidity overnight to permit spores to germinate and infect the leaf. The plants were then transferred to a greenhouse until disease developed on untreated control plants. Disease severity was evaluated 7-9 days later, depending on the speed of disease development. In each case of Table 3, the Puccinia rating scale is as follows: […]

| SMILES | MIC [1] | pest or weed control at 50 ppm [2] |
| --- | --- | --- |
| OC(c1c[nH]nn1)(c1ccc(F)cc1F)C(F)(F)c1ccc(C#Cc2ccc(F)cc2)cn1 (racemic) [Example 26] | > 4 µg/mL | – |
| CSc1ccc(C#Cc2ccc(C(F)(F)C(O)(c3cncnc3)c3ccc(F)cc3F)nc2)cc1 (racemic) [Example 22] | 1.5 to 4 µg/mL (≈ 3.03 to 8.07 µM) | – |
| OC(c1cncnc1)(c1ccc(F)cc1F)C(F)(F)c1ccc(C#CCOCC(F)(F)F)cn1 (racemic) [Example 6, 1-(2,4-difluorophenyl)-2,2-difluoro-1-(pyrimidin-5-yl)-2-(5-(3-(2,2,2-trifluoroethoxy)prop-1-ynyl)pyridin-2-yl)ethanol] | > 4 µg/mL | – |
| OC(c1cccnn1)(c1ccc(F)cc1F)C(F)(F)c1ccc(C#Cc2ccc(F)cc2)cn1 (racemic) [Example 24] | > 4 µg/mL | – |
| CCCC(O)(c1cncnc1)C(F)(F)c1ccc(C#Cc2ccc(C#N)cc2)cn1 (racemic) [Example 45] | 1.5 to 4 µg/mL (≈ 3.71 to 9.89 µM) | – |
| OC(c1nc[nH]n1)(c1ccc(F)cc1F)C(F)(F)c1ccc(C#Cc2ccc(F)cc2)cn1 (racemic) [Example 27] | > 4 µg/mL | < 40% |
| N#Cc1ccc(COc2ccc(C(F)(F)C(O)(c3cncnc3)c3ccc(F)cc3F)nc2)c(F)c1 (racemic) [Example 68] | – | 80 to 100% |
| OC(c1cc[nH]n1)(c1ccc(F)cc1F)C(F)(F)c1ccc(C#Cc2ccc(F)cc2)cn1 (racemic) [Example 30] | 1.5 to 4 µg/mL (≈ 3.29 to 8.78 µM) | – |
| O/N=C/c1ccc(C#Cc2ccc(C(F)(F)C(O)(c3cncnc3)c3ccc(F)cc3F)nc2)cc1 (racemic) [Example 23] | 1.5 to 4 µg/mL (≈ 3.05 to 8.12 µM) | – |
| O=[N+]([O-])c1ccc(COc2ccc(C(F)(F)C(O)(c3cncnc3)c3ccc(F)cc3F)nc2)cc1 (racemic) [Example 58] | 1.5 to 4 µg/mL (≈ 3 to 7.99 µM) | – |
| CCC(O)(c1cncnc1)C(F)(F)c1ccc(C#Cc2ccc(C#N)cc2)cn1 (racemic) [Example 46] | 1.5 to 4 µg/mL (≈ 3.84 to 10.2 µM) | – |
| OC(c1cncnc1)(c1ccc(F)cc1F)C(F)(F)c1ccc(Oc2ccc(Cl)cc2)cn1 (racemic) [Example 40] | > 4 µg/mL | – |
| OC(c1cnco1)(c1ccc(F)cc1F)C(F)(F)c1ccc(C#Cc2ccc(F)cc2)cn1 (racemic) [Example 29] | > 4 µg/mL | – |
| OC(c1cncnc1)(c1ccc(F)cc1F)C(F)(F)c1ccc(OCc2ccc(C(F)F)cc2)cn1 (racemic) [Example 54] | > 4 µg/mL | – |
| N#Cc1ccc(C#Cc2ccc(C(F)(F)C(O)(c3ccc(F)cc3)c3cncnc3)nc2)cc1 (racemic) [Example 44] | > 4 µg/mL | – |
| CC(C)C(O)(c1cncnc1)C(F)(F)c1ccc(OCc2ccc(Cl)cc2F)cn1 (racemic) [Example 50] | 1.5 to 4 µg/mL (≈ 3.43 to 9.14 µM) | – |
| OC(c1cnccn1)(c1ccc(F)cc1F)C(F)(F)c1ccc(C#Cc2ccc(F)cc2)cn1 (racemic) [Example 25] | – | < 40% |
| OC(c1cncs1)(c1ccc(F)cc1F)C(F)(F)c1ccc(C#Cc2ccc(F)cc2)cn1 (racemic) [Example 28] | 1.5 to 4 µg/mL (≈ 3.18 to 8.47 µM) | – |
| N#Cc1ccc(-c2ccc(C(F)(F)C(O)(c3cncnc3)c3ccc(F)cc3F)nc2)cc1 (racemic) [Example 4, 4-(6-(2-(2,4-difluorophenyl)-1,1-difluoro-2-hydroxy-2-(pyrimidin-5-yl)ethyl)pyridin-3-yl)benzonitrile] | > 4 µg/mL | – |
| OC(c1ccc(Cl)cc1)(c1cncnc1)C(F)(F)c1ccc(OCc2ccc(Cl)cc2)cn1 (stereo not drawn) [Example 69] | – | < 40% |
| OC(c1ccc(Cl)cc1)(c1cncnc1)C(F)(F)c1ccc(Oc2cccc(Cl)c2)cn1 (stereo not drawn) [Example 61] | 1.5 to 4 µg/mL (≈ 3.16 to 8.43 µM) | – |
| CC(C)C(O)(c1cncnc1)C(F)(F)c1ccc(OCc2ccc(C#N)cc2)cn1 (racemic) [Example 57] | > 4 µg/mL | – |

More lines, main results first:

| MIC [1] | SMILES | pest or weed control at 50 ppm [2] |
| --- | --- | --- |
| ≤ 0.5 µg/mL | Oc1ccc(C#Cc2ccc(C(F)(F)C(O)(c3cncnc3)c3ccc(F)cc3F)nc2)cc1 (racemic) [Example 19, 4-((6-(2-(2,4-Difluorophenyl)-1,1-difluoro-2-hydroxy-2-(pyrimidin-5-yl)ethyl)pyridin-3-yl)ethynyl)phenol] | – |
| 0.5 to 1.5 µg/mL (≈ 0.954 to 2.86 µM) | OC(c1cncnc1)(c1ccc(F)cc1F)C(F)(F)c1ccc(OCc2ccc(Cl)c(Cl)c2)cn1 (stereo not drawn) [Example 52] | 60 to 79% |
| ≤ 0.5 µg/mL | OC(c1cncnc1)(c1ccc(F)cc1F)C(F)(F)c1ccc(C#Cc2ccc(OC(F)(F)F)cc2)cn1 (racemic) [Example 14] | 80 to 100% |
| ≤ 0.5 µg/mL | N#Cc1ccc(CCc2ccc(C(F)(F)C(O)(c3cncnc3)c3ccc(F)cc3F)nc2)cc1 (racemic) [Example 32] | – |
| ≤ 0.5 µg/mL | CC(C)C(O)(c1cncnc1)C(F)(F)c1ccc(C#Cc2ccc(Cl)cc2)cn1 (racemic) [Example 64] | < 40% |
| ≤ 0.5 µg/mL | CC(C)C(O)(c1cncnc1)C(F)(F)c1ccc(C#Cc2cccc(C#N)c2)cn1 (racemic) [Example 67] | < 40% |
| 0.5 to 1.5 µg/mL (≈ 1.26 to 3.77 µM) | CC(C)C(O)(c1cncnc1)C(F)(F)c1ccc(C#Cc2ccc(F)cc2)cn1 (racemic) [Example 63] | – |
| 0.5 to 1.5 µg/mL (≈ 1.24 to 3.71 µM) | CC(C)C(O)(c1cncnc1)C(F)(F)c1ccc(C#Cc2ccc(C#N)cc2)cn1 (racemic) [Example 35] | < 40% |
| 0.5 to 1.5 µg/mL (≈ 1.03 to 3.09 µM) | COc1ccc(COc2ccc(C(F)(F)C(O)(c3cncnc3)c3ccc(F)cc3F)nc2)cc1 (racemic) [Example 49] | – |
| ≤ 0.5 µg/mL | OC(c1cncnc1)(c1ccc(F)cc1F)C(F)(F)c1ccc(OCc2ccc(Cl)cc2)cn1 (racemic) [Example 41] | 80 to 100% |
| ≤ 0.5 µg/mL | OC(c1cncnc1)(c1ccc(F)cc1F)C(F)(F)c1ccc(OCc2ccc(C(F)(F)F)cc2)cn1 (racemic) [Example 65] | 80 to 100% |
| 0.5 to 1.5 µg/mL (≈ 1.02 to 3.06 µM) | OC(c1cncnc1)(c1ccc(F)cc1F)C(F)(F)c1ccc(OCc2cccc(Cl)c2)cn1 (racemic) [Example 59] | – |
| ≤ 0.5 µg/mL | O=[N+]([O-])c1ccc(C#Cc2ccc(C(F)(F)C(O)(c3cncnc3)c3ccc(F)cc3F)nc2)cc1 (racemic) [Example 16, 1-(2,4-Difluorophenyl)-2,2-difluoro-2-(5-((4-nitrophenyl)ethynyl)pyridin-2-yl)-1-(pyrimidin-5-yl)ethanol] | 60 to 79% |
| ≤ 0.5 µg/mL | CC(C)(C)C(O)(c1cncnc1)C(F)(F)c1ccc(C#Cc2ccc(F)cc2)cn1 (racemic) [Example 48] | < 40% |
| ≤ 0.5 µg/mL | N#Cc1ccc(C#Cc2ccc(C(F)(F)C(O)(c3cncnc3)c3ccc(F)cc3F)nc2)s1 (racemic) [Example 37] | 60 to 79% |
| ≤ 0.5 µg/mL | CNc1ccc(C#Cc2ccc(C(F)(F)C(O)(c3cncnc3)c3ccc(F)cc3F)nc2)cc1 (racemic) [Example 7, 1-(2,4-difluorophenyl)-2,2-difluoro-2-(5-((4-(methylamino)phenyl)ethynyl)pyridin-2-yl)-1-(pyrimidin-5-yl)ethanol] | < 40% |
| 0.5 to 1.5 µg/mL (≈ 0.892 to 2.68 µM) | O=C(Nc1ccc(C#Cc2ccc(C(F)(F)C(O)(c3cncnc3)c3ccc(F)cc3F)nc2)cc1)C(F)(F)F (racemic) [Example 38] | < 40% |
| 0.5 to 1.5 µg/mL (≈ 1.19 to 3.57 µM) | CC(C)C(O)(c1cncnc1)C(F)(F)c1ccc(OCc2ccc(Cl)cc2)cn1 (racemic) [Example 53] | – |
| ≤ 0.5 µg/mL | CNc1ccc(CCc2ccc(C(F)(F)C(O)(c3cncnc3)c3ccc(F)cc3F)nc2)cc1 (racemic) [Example 33] | – |
| 0.5 to 1.5 µg/mL (≈ 1.04 to 3.12 µM) | N#Cc1ccc(COc2ccc(C(F)(F)C(O)(c3cncnc3)c3ccc(F)cc3F)nc2)cc1 (racemic) [Example 56] | – |
| ≤ 0.5 µg/mL | OC(c1cncnc1)(C(F)(F)F)C(F)(F)c1ccc(-c2ccc(Cl)cc2)cn1 (racemic) [Example 71, 1-(5-(4-Chlorophenyl)pyridin-2-yl)-1,1,3,3,3-pentafluoro-2-(pyrimidin-5-yl)propan-2-ol] | – |
| 0.5 to 1.5 µg/mL (≈ 1.05 to 3.16 µM) | N#Cc1ccc(C#Cc2ccc(C(F)(F)C(O)(c3cncnc3)c3ccc(F)cc3F)nc2)cn1 (racemic) [Example 17] | – |
| 0.5 to 1.5 µg/mL (≈ 1.06 to 3.17 µM) | N#Cc1cccc(C#Cc2ccc(C(F)(F)C(O)(c3ccc(Cl)cc3)c3cncnc3)nc2)c1 (racemic) [Example 66] | – |
| 0.5 to 1.5 µg/mL (≈ 1.05 to 3.14 µM) | O=Cc1ccc(C#Cc2ccc(C(F)(F)C(O)(c3cncnc3)c3ccc(F)cc3F)nc2)cc1 (racemic) [Example 31] | – |
| ≤ 0.5 µg/mL | OC(c1cncnc1)(c1ccc(F)cc1F)C(F)(F)c1ccc(C#Cc2ccc(NCC(F)(F)F)cc2)cn1 (racemic) [Example 36] | – |
